Data published in patent publication US5211945A, “Compositions and methods for modulating the effect of TNF and IL-1” (priority 1986, dated 1993).
Numbered stars: 1 amine (or outer) side, 2 acyl side, 3 side chain; on linkers, the order of the positions; unused ones are H or OH. Bridge positions count the residues as written; N and C are the ends. Square brackets hold non-standard residues; d marks the D form. Peptide text beside a SMILES is read from it. I, II: the chains in the order shown. Actinocin(9to1) = Cc1c2oc3c(C)ccc(C(=O)[*:1])c3nc-2c(C(=O)[*:2])c(N)c1=O; NMeV = CN[C@H](C(=O)O)C(C)C; Sar = CNCC(=O)O

Tests used:
Balb/c mice = assay: Lethality of TNF and IL-1 in mice sensitized with Act-D or GalN; format: in vivo, mouse; conditions: i.p., sensitizer injected 10 minutes before TNF or IL-1
Description: Nine to thirteen weeks old Balb/c mice were used in all experiments. TNF, IL-1, LPS, actinomycin-D (Act-D) and D-galactosamine (GalN) were solubilized in PBS and injected i.p.; each in aliquots of 0.5 ml. For lethality determination TNF, IL-1 or LPS were administered alone or 10 minutes following injection of Act-D or GalN; for desensitization experiments mice were injected with TNF or IL-1 12 h prior to a challenge consisting of the same regimen as the lethality testing. Following treatments the mice were continuously observed for a period of 72 h in order to determine the time of their death. In all cases, mice that survived 72 h appeared completely normal at that time. […] All experiments were performed in duplicate with qualitatively the same results. Two mice were examined for each experimental point, in each of the experiments. Their actual survival time as well as the average of the survival time of the two mice used for each of the points are presented.
In an attempt to elucidate the nature of the sensitizing effect of Act-D and of GalN, it was tested whether injection of TNF or IL-1 in the absence of these agents affects the response of mice to a subsequent injection of TNF or IL-1 together with Act-D or GalN. […]

[1] = tested on: receptors for TNF on SV-80 cells; assay: Binding of radiolabelled TNF to SV-80 cells, Scatchard plot analysis; format: cell-based, human; conditions: Scatchard analysis of 125I-TNF binding
Description: (PMA-4-beta-phorbol-12-myristate-13-acetate).
Binding of ^125 I-rTNF (at 3.6 ng/ml), ^125 I-rIL-1 (at 49 ng/ml) and ^125 I-rIFN-gamma (at 13 ng/ml) to the indicated cells was determined at […] as described below. Competition of IL-1 and TNF with each other for binding to their receptors was examined by applying the nonlabelled cytokines, at the indicated concentrations, simultaneously with the labelled proteins to the binding asay. The effect of pretreatment with IL-1 or TNF was examined by applying the proteins on the cells at 37° C. for 4 h prior to application of the labelled cytokines. Human TNF and IFN-gamma were radiolabelled as previously described (30, 44); the first with the chloramine T reagent to specific radioactivity of 42 Ci/g, and the second with the Bolton and Hunter reagent to specific radioactivity of 18 Ci/g. IL-1 was radioiodinated with the chloramine T reagent (31) to specific radioactivity of 40 Ci/g. Recovery of bioactivity following the iodination, as estimated by measuring the protective effect of the protein against the cytotoxicity of TNF (25) was over 95%. […] Specific binding was calculated by subtracting the values of nonspecific binding from the binding observed with the labelled cytokines alone. […]

SV-80 cells = assay: Sensitization of SV-80 cells to the cytolytic effect of TNF, neutral red uptake; format: cell-based, human; conditions: for Cell viability upon treatment with TNF (500 U/ml), pretreatment with IL-1 (2 U/ml), OD540 / Cell viability upon treatment with TNF (500 U/ml), pretreatment with IL-1 (2 U/ml), %: 4 h pretreatment with IL-1 2 U/ml; for Cell viability upon treatment with TNF (500 U/ml), pretreatment with IL-1 (2 U/ml), OD540 / Cell viability upon treatment with TNF (500 U/ml), pretreatment with IL-1 (2 U/ml), % / Cell viability upon treatment with TNF (500 U/ml), pretreatment with TNF (20 U/ml), OD540 / Cell viability upon treatment with TNF (500 U/ml), pretreatment with TNF (20 U/ml), %: then TNF 500 U/ml for 12 h with sensitizing agent; for Cell viability upon treatment with TNF (500 U/ml), pretreatment with IL-1 (2 U/ml), % / Cell viability upon treatment with TNF (500 U/ml), pretreatment with TNF (20 U/ml), %: % of sensitizing agent alone; for Cell viability upon treatment with TNF (500 U/ml), pretreatment with TNF (20 U/ml), OD540 / Cell viability upon treatment with TNF (500 U/ml), pretreatment with TNF (20 U/ml), %: 4 h pretreatment with TNF 20 U/ml; for Cell viability in absence of TNF, OD540: 12 h with sensitizing agent alone (cycloheximide 50 μg/ml, emetine 10 μg/ml, actinomycin D 5 μg/ml); for Cell viability upon treatment with TNF (500 U/ml), no pretreatment, OD540: TNF 500 U/ml for 12 h together with sensitizing agent; for Cell viability upon treatment with TNF (500 U/ml), no pretreatment, %: TNF 500 U/ml for 12 h with sensitizing agent, % of viability with sensitizing agent alone
Description: Cytolytic and protective (desensitization) activities of the cytokines were determined in all the figures using SV-80 cells which, for measurement of cytolytic activity, were incubated with serial dilutions of the tested cytokine for 12 hours together with 50 μg/ml CHI; for measuring protective activity, they were incubated for 4 hours with the tested cytokine and then for 12 hours with TNF, at the indicated concentrations, together with 50 μg/ml CHI. The extent of cell killing was quantitated by the neutral-red uptake assay. A unit of cytolytic activity is defined as the concentration of the tested cytokine at which the amount of cells remaining viable was 50% of those that remained viable on incubation with CHI alone. A unit of protective activity is defined as that cytokine concentration protecting 50% of the cells from killing by TNF.
IL-1 or TNF provide protection not only against the cytotoxicity mediated in the presence of CHI, but also against killing of cells in which synthesis of proteins has been suppressed by other agents.
SV-80 cells following 4 h pretreatment with IL1 or TNF or without such
pretreatment were tested for their vulnerability to the cytolytic effect
of TNF applied for 12 h together with the indicated sensitizing agents.
Viability of the cells is presented as neutral red uptake (OD540)
and, in cultures with TNF, percentagewise as compared to the viability in
cultures incubated with the sensitizing agent alone.

| SMILES | Sensitization of mice to the lethal effect of TNF and IL-1 (Balb/c mice) | Effect on number and affinity of binding sites for TNF [1] | Cell viability upon treatment with TNF (500 U/ml), pretreatment with IL-1 (2 U/ml), OD540 (SV-80 cells) [OD540] | Cell viability upon treatment with TNF (500 U/ml), pretreatment with IL-1 (2 U/ml), % (SV-80 cells) [%] | Cell viability upon treatment with TNF (500 U/ml), pretreatment with TNF (20 U/ml), OD540 (SV-80 cells) [OD540] | Cell viability upon treatment with TNF (500 U/ml), pretreatment with TNF (20 U/ml), % (SV-80 cells) [%] | Cell viability in absence of TNF, OD540 (SV-80 cells) [OD540] | Cell viability upon treatment with TNF (500 U/ml), no pretreatment, OD540 (SV-80 cells) [OD540] | Cell viability upon treatment with TNF (500 U/ml), no pretreatment, % (SV-80 cells) [%] |
| --- | --- | --- | --- | --- | --- | --- | --- | --- | --- |
| N[C@H]1C(O)O[C@H](CO)[C@H](O)[C@@H]1O (stereo partly drawn) [GalN, D-galactosamine] | sensitize mice to the lethal effect of TNF and IL-1 |  |  |  |  |  |  |  |  |
| CCCCCCCCCCCCCC(=O)OC1C(C)C2(O)C(C=C(CO)CC3(O)C(=O)C(C)=CC32)C2C(C)(C)C12OC(C)=O (stereo not drawn) [PMA, 4-beta-phorbol-12-myristate-13-acetate] |  | affect only the number of binding sites for TNF and not their affinity |  |  |  |  |  |  |  |
| Cc1c2oc3c(C)ccc(C(=O)N[C@@H]4C(=O)N[C@H](C(C)C)C(=O)N5CCC[C@H]5C(=O)N(C)CC(=O)N(C)[C@@H](C(C)C)C(=O)O[C@@H]4C)c3nc-2c(C(=O)N[C@@H]2C(=O)N[C@H](C(C)C)C(=O)N3CCC[C@H]3C(=O)N(C)CC(=O)N(C)[C@@H](C(C)C)C(=O)O[C@@H]2C)c(N)c1=O [actinomycin D] (I: T[dV]P[Sar][NMeV] / II: T[dV]P[Sar][NMeV]; ester I:1-I:C, II:1-II:C; linker I:N-II:N via Actinocin(9to1)) | sensitize mice to the lethal effect of TNF and IL-1 |  | 0.215 | 88 | 0.236 | 97 | 0.243 | 0.052 | 21 |
| C[C@@H]1C[C@@H]([C@H](O)CC2CC(=O)NC(=O)C2)C(=O)[C@@H](C)C1 [cycloheximide] |  |  | 0.163 | 72 | 0.195 | 86 | 0.226 | 0.020 | 9 |
| CC[C@H]1CN2CCc3cc(OC)c(OC)cc3[C@@H]2C[C@@H]1C[C@H]1NCCc2cc(OC)c(OC)cc21 [emetine] |  |  | 0.220 | 84 | 0.234 | 89 | 0.262 | 0.029 | 11 |
